Data taken from US20070208039A1, “Fungicidal Mixtures for Controlling Rice Pathogens” (priority 2004, published 2007).

System: Cochliobolus miyabeanus
Assay: activity against brown spot of rice caused by Cochliobolus miyabeanus, protective treatment
Type: in vivo
Settings: individual active compound, rice leaves, 6 days after inoculation
Experimental: The active compounds, separately or jointly, were prepared as a stock solution comprising 0.25% by weight of active compound in acetone or DMSO. 1% by weight of the emulsifier Uniperol® EL (wetting agent having emulsifying and dispersing action based on ethoxylated alkylphenols) was added to this solution, and the mixture was appropriately diluted with water to the desired concentration.
Use example—activity against brown spot of rice caused by Cochliobolus miyabeanus, protective treatment Leaves of potted rice seedlings of the cultivar “Tai-Nong 67” were sprayed to runoff point with an aqueous suspension having the concentration of active compound stated below. The next day, the plants were inoculated with an aqueous spore suspension of Cochliobolus miyabeanus. The test plants were then placed in climatized chambers at 22-24° C. and 95-99% relative atmospheric humidity for six days. The extent of the development of the infection on the leaves was then determined visually.
Evaluation is carried out by determining the percentage of infected leaf areas. These percentages were converted into efficacies.
The efficacy (E) is calculated as follows using Abbot's formula: E=(1−α/β)·100 α corresponds to the fungicidal infection of the treated plants in % and β corresponds to the fungicidal infection of the untreated (control) plants in % An efficacy of 0 means that the infection level of the treated plants corresponds to that of the untreated control plants; an efficacy of 100 means that the treated plants are not infected.
The expected efficacies of mixtures of active compounds are determined using Colby's formula (Colby, R. S., Weeds, 15, 20-22, 1967) and compared with the observed efficacies.
Colby's formula: E=x+y−x·y/100 • E expected efficacy, expressed in % of the untreated control, when using the mixture of the active compounds A and B at the concentrations a and b • x efficacy, expressed in % of the untreated control, when using the active compound A at the concentration a • y efficacy, expressed in % of the untreated control, when using the active compound B at the concentration b

Compound	Efficacy in % of the untreated control (6.25 ppm in the spray liquor) [%]	Efficacy in % of the untreated control (25 ppm in the spray liquor) [%]
CC1CCN(c2c(-c3c(F)cccc3Cl)c(Cl)nc3ncnn23)CC1 [A]	33	
C[C@H](Nc1c(-c2c(F)cc(F)cc2F)c(Cl)nc2ncnn12)C(F)(F)F [B]	56	
CC1CCN(c2c(-c3c(F)cc(F)cc3F)c(Cl)nc3ncnn23)CC1 [I, 5-chloro-7-(4-methylpiperidin-1-yl)-6-(2,4,6-trifluorophenyl)-[1,2,4]tri-azolo[1,5-a]pyrimidine]	56	
CC(=O)O.CCCCCCCCCCCCNC(=N)N [II (dodine), 1-dodecylguanidinium acetate]	0	0
